Measurements: ChEMBL document CHEMBL3632533, “O-Benzoyl pyridine aldoxime and amidoxime derivatives: novel efficient DNA photo-cleavage agents” (Medchemcomm, 2015)
Active and inactive are the calls of the source. The calls are words filed in the database; no cut-off is given here.

Tests used:
[1] = tested on: Enterobacteria phage lambda; test: Induction of Lambda phage supercoiled circular pBluescript KS II DNA cleavage assessed as single-stranded nick formation at 100 uM preincubated for 30 mins followed by UV light irradiation under aerobic condition measured after 15 mins by agarose gel electrophoresis in presence of D2O
[2] = tested on: Enterobacteria phage lambda; test: Induction of Lambda phage supercoiled circular pBluescript KS II DNA cleavage assessed as single-stranded nick formation at 100 uM preincubated for 30 mins followed by UV light irradiation under aerobic condition measured after 15 mins by agarose gel electrophoresis
[3] = tested on: Enterobacteria phage lambda; test: Induction of Lambda phage supercoiled circular pBluescript KS II DNA cleavage assessed as double-stranded nick formation at 100 uM preincubated for 30 mins followed by UV light irradiation under aerobic condition measured after 15 mins by agarose gel electrophoresis in presence of D2O
[4] = tested on: Enterobacteria phage lambda; test: Induction of Lambda phage supercoiled circular pBluescript KS II DNA cleavage incubated for 30 mins by agarose gel electrophoresis in absence of UV light irradiation
[5] = tested on: Enterobacteria phage lambda; test: Induction of Lambda phage supercoiled circular pBluescript KS II DNA cleavage assessed as double-stranded nick formation at 100 uM preincubated for 30 mins followed by UV light irradiation under aerobic condition measured after 15 mins by agarose gel electrophoresis
[6] = tested on: Enterobacteria phage lambda; test: Induction of Lambda phage supercoiled circular pBluescript KS II DNA cleavage assessed as double-stranded nick formation at 1000 uM preincubated for 30 mins followed by UV light irradiation under aerobic condition measured after 15 mins by agarose gel electrophoresis
[7] = tested on: Enterobacteria phage lambda; test: Induction of Lambda phage supercoiled circular pBluescript KS II DNA cleavage assessed as single-stranded nick formation at 1000 uM preincubated for 30 mins followed by UV light irradiation under aerobic condition measured after 15 mins by agarose gel electrophoresis
[8] = tested on: Enterobacteria phage lambda; test: Induction of Lambda phage supercoiled circular pBluescript KS II DNA cleavage assessed as double-stranded nick formation at 500 uM preincubated for 30 mins followed by UV light irradiation under aerobic condition measured after 15 mins by agarose gel electrophoresis
[9] = tested on: Enterobacteria phage lambda; test: Induction of Lambda phage supercoiled circular pBluescript KS II DNA cleavage assessed as double-stranded nick formation at 100 uM preincubated for 30 mins followed by UV light irradiation measured after 15 mins by agarose gel electrophoresis in presence of argon
[10] = tested on: Enterobacteria phage lambda; test: Induction of Lambda phage supercoiled circular pBluescript KS II DNA cleavage assessed as single-stranded nick formation at 100 uM preincubated for 30 mins followed by UV light irradiation under aerobic condition measured after 15 mins by agarose gel electrophoresis in presence of 20% DMSO
[11] = tested on: Enterobacteria phage lambda; test: Induction of Lambda phage supercoiled circular pBluescript KS II DNA cleavage assessed as single-stranded nick formation at 500 uM preincubated for 30 mins followed by UV light irradiation under aerobic condition measured after 15 mins by agarose gel electrophoresis
[12] = tested on: Enterobacteria phage lambda; test: Induction of Lambda phage supercoiled circular pBluescript KS II DNA cleavage assessed as single-stranded nick formation at 1 uM preincubated for 30 mins followed by UV light irradiation under aerobic condition measured after 15 mins by agarose gel electrophoresis
[13] = tested on: Enterobacteria phage lambda; test: Induction of Lambda phage supercoiled circular pBluescript KS II DNA cleavage assessed as double-stranded nick formation at 100 uM preincubated for 30 mins followed by UV light irradiation under aerobic condition measured after 15 mins by agarose gel electrophoresis in presence of 20% DMSO
[14] = tested on: Enterobacteria phage lambda; test: Induction of Lambda phage supercoiled circular pBluescript KS II DNA cleavage assessed as single-stranded nick formation at 100 uM preincubated for 30 mins followed by UV light irradiation under aerobic condition measured after 15 mins by agarose gel electrophoresis in presence of NaN3
[15] = tested on: Enterobacteria phage lambda; test: Induction of Lambda phage supercoiled circular pBluescript KS II DNA cleavage assessed as single-stranded nick formation at 100 uM preincubated for 30 mins followed by UV light irradiation measured after 15 mins by agarose gel electrophoresis in presence of argon
[16] = tested on: Enterobacteria phage lambda; test: Induction of Lambda phage supercoiled circular pBluescript KS II DNA cleavage preincubated for 30 mins followed by UV light irradiation under aerobic condition measured after 15 mins by agarose gel electrophoresis
[17] = tested on: Enterobacteria phage lambda; test: Induction of Lambda phage supercoiled circular pBluescript KS II DNA cleavage assessed as single-stranded nick formation at 10 uM preincubated for 30 mins followed by UV light irradiation under aerobic condition measured after 15 mins by agarose gel electrophoresis
[18] = tested on: Enterobacteria phage lambda; test: Induction of Lambda phage supercoiled circular pBluescript KS II DNA cleavage assessed as double-stranded nick formation at 10 uM preincubated for 30 mins followed by UV light irradiation under aerobic condition measured after 15 mins by agarose gel electrophoresis
[19] = tested on: Enterobacteria phage lambda; test: Induction of Lambda phage supercoiled circular pBluescript KS II DNA cleavage assessed as double-stranded nick formation at 1 uM preincubated for 30 mins followed by UV light irradiation under aerobic condition measured after 15 mins by agarose gel electrophoresis

Q: What does the source list for O=C(O/N=C/c1cccnc1)c1ccc([N+](=O)[O-])cc1?
A: Activity [1]: 85%; Activity [2]: 84%; Activity [3]: 8%; Activity [4]: inactive; Activity [5]: 2%; Activity [6]: 13%; Activity [7]: 84%; Activity [8]: 2%; Activity [9]: 9%; Activity [10]: 75%; Activity [11]: 81%; Activity [12]: 59%; Activity [13]: 20%; Activity [14]: 23%; Activity [15]: 85%

Q: With O/N=C/c1cccnc1 as the compound, how does the Activity [16] read?
A: Its Activity is “inactive”.

Q: What about the Activity [4] of the same compound?
A: Its Activity is “inactive”.

Q: N/C(=N\O)c1cccnc1 was tested. Which Activity [16] did it give?
A: The Activity was “inactive”.

Q: What about the Activity [4] of the same compound?
A: Its Activity is “inactive”.

Q: N/C(=N\OC(=O)c1ccc([N+](=O)[O-])cc1)c1ccncc1 was tested. Which Activity [17] did it give?
A: The Activity was “Active”.

Q: What about the Activity [2] of the same compound?
A: The Activity was 75%.

Q: What about the Activity [4] of the same compound?
A: Its Activity is “inactive”.

Q: What about the Activity [5] of the same compound?
A: Its Activity is 7%.

Q: What about the Activity [6] of the same compound?
A: Its Activity is 50%.

Q: What about the Activity [7] of the same compound?
A: The Activity was 50%.

Q: What about the Activity [18] of the same compound?
A: The Activity was “Active”.

Q: And the Activity [12]?
A: Its Activity is 25%.

Q: O=C(O/N=C/c1ccccn1)c1ccc([N+](=O)[O-])cc1 was tested. Which Activity [2] did it give?
A: Its Activity is 83%.

Q: What about the Activity [4] of the same compound?
A: The Activity was “inactive”.

Q: What about the Activity [5] of the same compound?
A: Its Activity is 10%.

Q: And the Activity [6]?
A: Its Activity is 7%.

Q: And the Activity [7]?
A: Its Activity is 86%.

Q: What about the Activity [12] of the same compound?
A: The Activity was 46%.

Q: How did the Activity [2] turn out when O=C(O/N=C/c1cccnc1)c1ccccc1 was run?
A: The Activity was 39%.

Q: What about the Activity [4] of the same compound?
A: The Activity was “inactive”.

Q: And the Activity [6]?
A: The Activity was 1%.

Q: And the Activity [7]?
A: Its Activity is 72%.

Q: And the Activity [11]?
A: Its Activity is 38%.

Q: How did the Activity [2] turn out when N=C(NOC(=O)c1ccccc1)c1cccnc1 was run?
A: The Activity was 5%.

Q: What about the Activity [4] of the same compound?
A: The Activity was “inactive”.

Q: What about the Activity [7] of the same compound?
A: The Activity was 25%.

Q: And the Activity [11]?
A: Its Activity is 25%.

Q: For NC(=NOC(=O)c1ccc([N+](=O)[O-])cc1)c1ccccn1, which Activity [17] is on record?
A: The Activity was “Active”.

Q: And the Activity [2]?
A: Its Activity is 85%.

Q: What about the Activity [4] of the same compound?
A: The Activity was “inactive”.

Q: And the Activity [5]?
A: Its Activity is 10%.

Q: What about the Activity [6] of the same compound?
A: The Activity was 20%.

Q: And the Activity [7]?
A: Its Activity is 73%.

Q: What about the Activity [18] of the same compound?
A: The Activity was “Active”.

Q: And the Activity [19]?
A: Its Activity is 15%.

Q: And the Activity [12]?
A: The Activity was 70%.

Q: What does the source list for NC(=NOC(=O)c1ccc([N+](=O)[O-])cc1)c1cccnc1?
A: Activity [17]: Active; Activity [1]: 28%; Activity [2]: 81%; Activity [4]: inactive; Activity [5]: 4%; Activity [6]: 36%; Activity [7]: 64%; Activity [8]: 2%; Activity [9]: 6%; Activity [10]: 83%; Activity [18]: Active; Activity [11]: 75%; Activity [19]: 4%; Activity [12]: 56%; Activity [13]: 5%; Activity [14]: 16%; Activity [15]: 86%

Q: CC(=O)O/N=C(\N)c1cccnc1 was tested. Which Activity [2] did it give?
A: Its Activity is 0%.

Q: And the Activity [4]?
A: The Activity was “inactive”.

Q: What about the Activity [7] of the same compound?
A: Its Activity is 0%.

Q: And the Activity [11]?
A: Its Activity is 6%.

Q: With COc1ccc(C(=O)O/N=C/c2cccnc2)cc1 as the compound, how does the Activity [2] read?
A: The Activity was 0%.

Q: And the Activity [4]?
A: The Activity was “inactive”.

Q: What about the Activity [7] of the same compound?
A: The Activity was 35%.

Q: And the Activity [11]?
A: The Activity was 29%.

Q: For COc1ccc(C(=O)O/N=C(\N)c2cccnc2)cc1, which Activity [2] is on record?
A: The Activity was 0%.

Q: What about the Activity [4] of the same compound?
A: The Activity was “inactive”.

Q: What about the Activity [7] of the same compound?
A: The Activity was 36%.

Q: What about the Activity [11] of the same compound?
A: Its Activity is 27%.

Q: How did the Activity [2] turn out when O=C(O/N=C/c1ccncc1)c1ccc([N+](=O)[O-])cc1 was run?
A: Its Activity is 87%.

Q: And the Activity [4]?
A: Its Activity is “inactive”.

Q: And the Activity [5]?
A: The Activity was 9%.

Q: And the Activity [6]?
A: Its Activity is 33%.

Q: And the Activity [7]?
A: Its Activity is 67%.

Q: And the Activity [12]?
A: Its Activity is 28%.
